{"source": "PubChem BioAssay AID651563", "about": "(Sanford-Burnham Center for Chemical Genomics, 2012)", "note": "“And” between values parts separate entries of the source, which are not always exact repeats. Identical values can stand only once. The source made the active and inactive calls.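 The calls were made as follows: active = compounds whose IC50 is 20 micromolar or lower, counted as confirmed SKN-1 reporter blockers; inactive = the rest.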", "data": [{"test_system": "C. elegans VP596 Pgst-4::GFP/RFP ratio, acrylamide, 24 h", "assay": "C. elegans gst-4 reporter suppression, concentration series – whole organism, GFP/RFP fluorescence ratio, set 2, strain VP596, SKN-1 inhibitor project, dose response (AID 651563);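 also: red signal is driven by the dop-3 promoter and serves as the normalizer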", "values": [{"smiles": "Clc1ccc(Cn2nnc(-c3ccccc3)n2)cc1", "IC50": "20.9 µM (inactive)"}, {"smiles": "COc1cc(SC)ccc1C(=O)Nc1nccs1", "IC50": "> 100 µM (inactive)"}, {"smiles": "O=C(/C=C/c1ccc(Cl)cc1Cl)Nc1ccc(CN2CCOCC2)cc1", "IC50": "> 100 µM (inactive)"}, {"smiles": "CCCn1nc2cc(C(=O)NCc3ccc(OC(F)(F)F)cc3)ccc2c1OCC", "IC50": "25.4 µM (inactive)"}, {"smiles": "C=CCSc1nnc(-c2ccc(Cl)cc2Cl)o1", "IC50": "25.2 µM (inactive)"}, {"smiles": "CCCCOC(=O)Nc1ccc(C(C)C)cc1", "IC50": "76.2 µM (inactive)"}, {"smiles": "Cn1c(=O)c2c(-c3ccccc3)n(-c3ccc(N)cc3)cc2n(C)c1=O", "IC50": "23.5 µM (inactive)"}, {"smiles": "Clc1ccsc1-c1ccc2ccccc2n1", "IC50": "20.3 µM (inactive)"}, {"smiles": "COc1c(C(=O)Nc2nccs2)ccc2ccccc12", "IC50": "41.8 µM (inactive)"}, {"smiles": "Fc1ccc(COc2ccc(-c3nnco3)cc2)cc1", "IC50": "7.45 µM"}, {"smiles": "Fc1ccccc1CSc1ccc(-c2ccco2)nn1", "IC50": "> 100 µM (inactive)"}, {"smiles": "O=C(Nc1ccc(SC(F)F)cc1)c1ccccc1F", "IC50": "20.3 µM (inactive)"}, {"smiles": "N=C1C=CC(=C(c2ccc(N)cc2)c2ccc(N)cc2)C=C1", "IC50": "20.2 µM (inactive)"}, {"smiles": "c1ccc2oc(SCc3nc4ccccc4s3)nc2c1", "IC50": "27.4 µM (inactive)"}, {"smiles": "COc1ccc2c(c1)OC/C(=C/c1cccs1)C2=O", "IC50": "16.8 µM"}, {"smiles": "Clc1ccccc1-c1nc(-c2ccncc2)no1", "IC50": "18.4 µM and > 100 µM (inactive)"}, {"smiles": "CCOC(=O)c1c(-c2ccc(-c3ccccc3)cc2)csc1NC(=O)CNCCN(C)C", "IC50": "10.9 µM"}, {"smiles": "Clc1ccc(-c2cc(CSc3ccccc3)on2)cc1", "IC50": "> 100 µM (inactive)"}, {"smiles": "Brc1ccc2oc(-c3ccn[nH]3)cc2c1", "IC50": "10.3 µM"}, {"smiles": "Brc1ccc(-c2cn3ccccc3n2)s1", "IC50": "18.1 µM"}, {"smiles": "Cc1ccc(N=C/C(C(=O)C(F)(F)F)=C(\\O)c2ccco2)cc1Cl", "IC50": "14.3 µM"}, {"smiles": "c1ccc2sc(SCc3ccc(-c4nnco4)cc3)nc2c1", "IC50": "11.9 µM"}, {"smiles": "O=C(/C=C/Nc1ccc(F)cc1F)c1ccco1", "IC50": "22.7 µM (inactive)"}, {"smiles": "CCOc1ccc(-c2nc(-c3cccnc3)no2)cc1", "IC50": "19 µM"}, {"smiles": "CCN(CC)c1ccc(/C=C2/C(=O)c3ccc(C(=O)O)cc3C2=O)cc1", "IC50": "11.9 µM"}, {"smiles": "O=C(Nc1nccs1)c1ccc2ccccc2c1", "IC50": "23.8 µM (inactive)"}, {"smiles": "CC(=O)NS(=O)(=O)c1ccc(Nc2ccc([N+](=O)[O-])c3nonc23)cc1", "IC50": "57.9 µM (inactive)"}, {"smiles": "CCn1nccc1C(=O)Nc1ccc(Cl)c(Cl)c1", "IC50": "87.8 µM (inactive)"}, {"smiles": "O=C(Sc1ccc(Cl)cc1)c1ccccn1", "IC50": "> 100 µM (inactive)"}, {"smiles": "Clc1ccc(-c2nnc(-c3ccco3)o2)cc1", "IC50": "15.8 µM"}, {"smiles": "CC1(C)c2ccccc2C(=O)c2ccccc21", "IC50": "> 100 µM (inactive)"}, {"smiles": "CCOc1cc(CNCCSc2nnnn2C)cc(Br)c1OCc1ccc(F)cc1", "IC50": "2.73 µM"}, {"smiles": "Brc1ccc(-c2nc(-c3ccccn3)no2)o1", "IC50": "35.8 µM (inactive)"}, {"smiles": "O=[N+]([O-])c1ccc(OCc2cnc(Cl)s2)cc1", "IC50": "13.7 µM"}, {"smiles": "O=C(Nc1ccc(Cl)cn1)c1ccccc1F", "IC50": "20.6 µM (inactive)"}, {"smiles": "CCCCCCCCNc1ncnc2ccccc12", "IC50": "> 100 µM (inactive)"}, {"smiles": "CCOc1cc(CNC2CCCC2)cc(Cl)c1OCc1ccc(F)cc1", "IC50": "2.85 µM"}, {"smiles": "O=[N+]([O-])c1ccc2nc(N3CCCC3)sc2c1", "IC50": "> 100 µM (inactive)"}, {"smiles": "CN(C)C(CNC(=O)CCc1nc2cc(Cl)ccc2n(Cc2ccccc2)c1=O)c1ccccc1", "note": "(stereo unspecified)", "IC50": "26.1 µM (inactive)"}, {"smiles": "CC1=NN(c2ccccc2)C(=O)/C1=C\\C=C1/N(C)c2ccccc2C1(C)C", "IC50": "14.4 µM"}, {"smiles": "CCSc1nnc(-c2ccc(Cl)cc2Cl)o1", "IC50": "58.5 µM (inactive)"}, {"smiles": "O=C(/C=C/Nc1ccc(F)c(Cl)c1)c1ccco1", "IC50": "16.7 µM"}, {"smiles": "O=C1/C(=C/c2cccs2)CCc2ccccc21", "IC50": "34.3 µM (inactive)"}, {"smiles": "O=C(Nc1nc(-c2ccc(Cl)s2)cs1)c1cccs1", "IC50": "6.63 µM"}, {"smiles": "O=c1c2ccccc2ccc2ccccc12", "IC50": "33.8 µM (inactive)"}, {"smiles": "O=C(C=Cc1ccccc1)CC(c1ccccc1)N1CCOCC1", "note": "(stereo unspecified)", "IC50": "10.2 µM"}, {"smiles": "O=C(/C=C/Nc1ccc(F)cc1F)c1cccs1", "IC50": "5.04 µM"}, {"smiles": "Clc1ccc(CSc2ncn(-c3ccccc3)n2)cc1", "IC50": "11.2 µM"}, {"smiles": "CCCCOC(=O)Nc1ccc(N2CCCCC2)cc1", "IC50": "38.8 µM (inactive)"}, {"smiles": "O=C(Nc1nc(-c2ccc(Cl)s2)cs1)c1ccccc1", "IC50": "13.2 µM"}, {"smiles": "Cc1nc2ccccc2cc1OCc1ccc(F)cc1", "IC50": "24 µM (inactive)"}, {"smiles": "CCOc1cc(CNC2CCCC2)cc(Cl)c1OCc1ccccc1", "IC50": "22.4 µM (inactive)"}, {"smiles": "Fc1ccc(-c2csc(Nc3ccccn3)n2)cc1", "IC50": "7.01 µM"}, {"smiles": "O=c1cc(-c2ccc(F)cc2)oc2ccccc12", "IC50": "19.2 µM"}, {"smiles": "Clc1cccc(CSc2ncn(-c3ccccc3)n2)c1", "IC50": "37.5 µM (inactive)"}, {"smiles": "Clc1ccc2nc(-c3ccc(Br)s3)cn2c1", "IC50": "21.6 µM (inactive)"}, {"smiles": "Clc1ccc(-c2nnc(-c3ccccc3)o2)c(Cl)c1", "IC50": "1.46 µM"}, {"smiles": "COc1ccc2c(c1OC)C(=O)OC2Nc1nc(-c2ccc(-c3ccccc3)cc2)cs1", "note": "(stereo unspecified)", "IC50": "33.8 µM (inactive)"}, {"smiles": "O=C(Nc1ccc(Cl)c(Cl)c1)c1ccco1", "IC50": "45.4 µM (inactive)"}, {"smiles": "c1ccc(-c2csc(-c3cccnc3)n2)cc1", "IC50": "> 100 µM (inactive)"}, {"smiles": "CCOC(=O)Nc1nc(-c2ccc(F)cc2F)cs1", "IC50": "18.1 µM"}]}]}
